Measurements as given in patent publication US20220299500A1, “NDUFS2 SUBUNIT KNOCKOUT HUMAN CELL LINE” (priority 2019, published 2022).
Entries after “also recorded” stand apart in the source; their conditions may differ.

What was measured:
Format in all cases: cell-based, human
[1] = test system: mutant HEK293ΔNDUFS2; assay: ATP synthesis of mutant cells grown with therapeutics, Mitochondrial ToxGlo Assay; conditions: for amount of ATP compared to mutant cells treated with DMSO: day 6, luminescence normalized to DMSO control; for restoration of ATP synthesis defects of the mutant: concentration not given
Method: (§1) ATP synthesis and cell-membrane integrity of strains. Potential mitochondrial dysfunction of strains was assessed by using the Mitochondrial ToxGlo Assay (Promega Corporation, Madison, Wis.), according to the procedure described by the manufacturer. This assay is based on the measurements of biomarkers associated with changes in cell membrane integrity and cellular ATP levels. Briefly, the parent and mutant cells grown in flasks were harvested by trypsinization and resuspended in fresh medium. Approximately 10,000 cells/well were added to a 96-well plate and incubated overnight. A working stock of antimycin A, which is a mitochondrial toxin (complex III inhibitor) was prepared at a concentration of 150 μM in a glucose-free DMEM medium (Sigma-Aldrich) supplemented with 10 mM galactose (Sigma-Aldrich). Serial dilutions of the mitochondrial toxin were prepared in a separate 96-well plate (in galactose containing medium). Overnight grown cells were washed with glucose-free galactose containing medium, and fresh (galactose containing medium) was added into wells at 50 μl/well. Fifty μl volumes of the serial dilutions of toxin were transferred from the stock plate to the wells in cell culture plate. The wells carrying the vehicle controls received the medium with no toxin. The plate was incubated at 37° C. for 90 min. Twenty μl volumes of 5× Cytotoxicity Reagent were added to each well, the plate was incubated at 37° C. for further 30 min, and the fluorescence was measured at 475 nmEX/500-550 nmEM, by using a Glomax Discover plate reader (Promega Corporation). The assay plate was equilibrated to room temperature, 100 μl ATP Detection Reagent was added to each well, and luminescence was measured by using the same plate reader.
Restoring (rescuing) the altered/lost phenotypes of the mutant with the use of potential complex I therapeutics. Effectiveness of the potential complex I therapeutics in restoring the metabolic defects of the mutant HEK293ΔNDUFS2 was evaluated. For this purpose, the mutant cells were treated with the therapeutic idebenone or its analog SBT-220 and change in ATP synthesis was examined. In this procedure, the mutant cells were suspended in culture media supplemented with 0, 1, or 10 μM of idebenone, conjugate SBT-220, conjugate SBT-222, or elamipretide, and plated in 96 well plates at 2,000 cells/well. Cells suspended in DMSO served as controls. Fresh media (with or without therapeutics) were added on days 0, 3 and 5. Cellular ATP synthesis was assessed on day 6 of incubation by using the Mitochondrial ToxGlo Assay, as described above. The responses of ATP synthesis in the treatment groups were normalized to that of the control group.
(§2) Restoring (rescuing) the impaired growth and respiration the mutant. Effectiveness of the potential Complex I therapeutic idebenone in restoring the ATP synthesis defects of the mutant HEK293ΔNDUFS2 was evaluated. In this procedure, mutant cells were cultured in media supplemented with 1 μM of idebenone in 96-well plates at 2,000 cells/well. Fresh media (with or without the therapeutic) were added on days 0, 3 and 5. Cellular ATP pool was assessed on day 6 of incubation by Mitochondrial ToxGlo Assay. Mutant cells were also cultured in 6-well plates at 2000 cells/well in medium supplemented 0.5, 1, 5, or 10 μM of idebenone. Fresh media containing the drug was added on days 3, 6 and 9, and the cell counts in wells of triplicates was determined following 10 days incubation. Efficacy of idebenone in improving respiration of permeabilized mutant cells was measured by O2k respirometry as described above with the following modification: subsequent to glutamate+malate injection, idebenone was injected into chambers at 1 μM final concentration. The control groups received DMSO.

[2] = test system: permeabilized mutant HEK293ΔNDUFS2 cells; assay: Oxygen consumption of permeabilized mutant cells, Oroboros O2k respirometry
Method: Mitochondrial respiration measurements with Oroboros O2K respirometry. Oxygen consumption rate (OCR) of strains was determined using protocols described elsewhere (Alleman R J, et al. Am J Physiol Heart Circ Physiol 2016, 310(10):H1360-1370; Goswami I, et al. Biophys J 2018, 114(12):2951-2964). Briefly, the parent type HEK293 and the mutant HEK293ΔNDUFS2 grown for eight days in 225 cm^2 flasks for 75-80% confluence were harvested by treatment with trypsin-EDTA, centrifuged at 300×g for 3 min, and resuspended in assay buffer Z (105 mM 2-(N-Morpholino)ethanesulfonic acid potassium salt, 30 mM KCl, 10 mM KH2PO4, 5 mM MgCl2-6H2O, 0.5 mg/mL bovine serum albumin, 20 mM creatine, 1 mM EGTA [pH 7.1] in dH2O). Approximately one million cells in 2 ml volumes were then introduced into the Oroboros O2K respiration chamber, which is equipped with calibrated oxygen measuring polarographic sensors. The oxygen signals were allowed to stabilize before closing the chamber to the outside air while chamber temperature was maintained at 37° C. Subsequently, the OCR was recorded after injection with none (basal), 2 mM of malate plus 10 mM glutamate (G/M), 5 mM of adenosine diphosphate (ADP), and 1.0 μM protonophore Carbonyl cyanide 4-(trifluoromethoxy)phenylhydrazone (FCCP).
Cell growth and metabolism. To measure the cell proliferation of parent HEK293 and mutant HEK293ΔNDUFS2, aliquots of 50,000 cells were introduced into 75 cm^2 flasks each carrying 25 ml growth media and cell numbers were quantified in triplicates after 4 and 6 days of incubation. Extracellular Acidification Rate (ECAR) was determined with an Agilent Seahorse XFe96 analyzer (Ryall J G. Methods Mol Biol 2017, 1556:245-253). Cellular ATP pool and cell-membrane porousness were measured using Mitochondrial ToxGlo Assay (Promega Corporation, Madison, Wis.). Oxygen consumption of saponin-permeabilized cells (Hahn D, et al. Am J Physiol Cell Physiol 2019, 317(4):C665-C673) was measured by Oroboros O2k respirometry (Alleman R J, et al. Am J Physiol Heart Circ Physiol 2016, 310(10):H1360-1370; Goswami I, et al. Biophys J 2018, 114(12):2951-2964).
as §2

[3] = test system: mutant HEK293ΔNDUFS2; assay: Cell growth of mutant cultures treated for 10 days (cell counts)
Method: as §2

[4] = test system: mutant HEK293ΔNDUFS2; assay: ATP synthesis in presence of respiratory inhibitor, Mitochondrial ToxGlo Assay; conditions: Antimycin A added to reaction media
Method: as §1

[5] = test system: parent HEK293; assay: as above; conditions: Antimycin A added to reaction media, 90 min
Method: as §1

[6] = test system: mutant HEK293ΔNDUFS2; assay: Cell-membrane porousness in presence of respiratory inhibitor, Mitochondrial ToxGlo Assay
Method: as §1

[7] = test system: parent HEK293; assay: as above; conditions: Antimycin A added to reaction medium
Method: as §1

[8] = 1 μM final concentration, vs DMSO

Compound | amount of ATP compared to mutant cells treated with DMSO ([1]; 1 μM) [folds] | restoration of ATP synthesis / ATP pool of the mutant ([1]; 1 μM, long-term treatment (six days)) | improvement of ATP synthesis defects of the mutant ([1]; 10 μM) | restoration of ATP synthesis defects of the mutant [1] | Complex I respiration ([2]; 1 μM final concentration injected after glutamate+malate, vs DMSO) | Complex II respiration [2, 8] | OXPHOS capacity [2, 8] | maximal respiration [2, 8] | oxygen consumption all along the ETC ([2]; idebenone treatment vs DMSO) | more cells recovered compared to the DMSO control ([3]; 0.5 μM, 10 days) [%] | cell proliferation ([3]; 0.5 μM, long-term treatment) | growth of the mutant ([3]; 1 μM, 10 days) | growth of the mutant ([3]; 5 μM, 10 days) | effect on mutant cells in growth test ([3]; 10 μM, 10 days) | decline of ATP synthesis in the mutant compared to the parent [4] | ATP synthesis ability ([4]; 90 min) | ATP synthesis ability [5] | membrane porousness ([6]; Antimycin A added to reaction medium) | cell membrane porousness of the mutant relative to the parent ([6]; as a result of antimycin A treatment) | membrane porousness [7]
COC1=C(OC)C(=O)C(CCCCCCCCCCO)=C(C)C1=O [idebenone] | 2.4 | restored the ATP synthesis of the mutant to some extent; also recorded: significantly greater amount of ATP; also recorded: improved ATP pool | failed to improve | partially restored | improved significantly | improved significantly | improved significantly | improved significantly | improved oxygen consumption all along the ETC | 32.1 | enhanced cell proliferation | did not improve growth | did not improve growth | caused cell death |  |  |  |  |  | 
elamipretide | 2.1 |  |  | partially restored |  |  |  |  |  |  |  |  |  |  |  |  |  |  |  | 
Antimycin A |  |  |  |  |  |  |  |  |  |  |  |  |  |  | up to 2.2 folds | declined drastically | declined drastically | more porous | up to 4.5 folds | more porous
